According to patent publication US12286625B2, “Inhibition of mir-22 miRNA by APT-110” (AptamiR Therapeutics, Inc., priority 2016, dated 2025):
Read-outs that look alike come from different tables or passages of the source.

How the values were obtained:
[1] = system: DIO C57BL/6J male mice; experiment: APT-110 in 14-week old DIO mice on 60% high fat diet treated 6 weeks; type: in vivo, mouse
Procedure: A similar study was performed in 14-week old mice (n=9 per group) which were randomized into 2 groups according to similar body weights and kept on 60% high fat diet (Research Diet D12492) for 6 weeks. One group of mice received subcutaneous injections in the left inguinal fat pad of a custom-designed miR-22-3p inhibitor (APT-110, 18 nucleotides long, 15 mg/kg) on days 0, 2, and 4 of the first week, then once a week for the next 5 weeks. The other group kept on 60% high fat diet received saline injections.
Body composition was measured by NMR at the end of the study (week 6 of treatment). Fat mass was 30% lower in the APT-110 miR-22-3p inhibitor group on 60% fat diet than that in the control group on saline and 60% fat diet (11.29±0.87 vs. 16.11±0.87 grams, p<0.0017). Lean mass was similar in both groups at week 6 of treatment (21.74±0.99 vs. 22.33±0.63 grams).
DIO male C57BL/6J mice were started on a 60% high fat diet at the age of 6-week old and were randomized according to body weight into treatment groups (8 to 12 animals per group) at various ages. After acclimation for 1 to 2 weeks, the mice were administered subcutaneous injections of saline or a miR-22 antagomir in the left inguinal fat pad (injections on Days 0, 2, and 4, then once a week for up to 12 weeks) while they remained on the 60% high fat diet. In some studies, another control group of mice was switched back to a normal 10% fat chow at the time of treatment randomization.
Blood samples were collected by retro-orbital bleeds or cut tip of the tail. Mice underwent body composition analysis by NMR (Bruker LF50 BCA-Analyzer) while they were gently restrained to keep them quiet during this non-invasive measurement. Liver, heart, inguinal fat, perirenal or epididymal fat, and subscapular fat were weighed and collected for histology (10% formalin fixed, then transferred to 70% ethanol for shipment) and gene expression (flash frozen in duplicate). Spleens were weighed and discarded. Blood was collected and processed into serum or plasma at the time of necropsy by cardiocentesis. Serum level of alanine aminotransferase (ALT), aspartate aminotransferase (AST), glucose, insulin, cholesterol and triglycerides were measured.

[2] = system: DIO C57BL/6 male mice; type: in vivo, mouse; set-up: Plasma adiponectin: unit not given here
Procedure: A dedicated study was conducted under contract at the University of Buckingham Institute of Translational Medicine (Pr. M A Cawthorne, Pr. P Trayhurn, Dr. C. Stocker) to assess the energetic and metabolic responses to the APT-110 miR-22-3p inhibitor treatment in adult Diet-Inducted-Obese (DIO) C57BL/6 male mice over the course of 3 months. Twenty-four DIO male C57BL/6 mice, who started on 60% high fat diet at the age of 7 weeks, were purchased at 15 weeks of age from the Jackson Laboratory, USA. The mice remained on a 60% high fat diet (Research Diet D12492) throughout the experiment. The mice were kept on a 12 h light/12 h dark light cycle with lights on at 08h00 and at a room temperature of 25±1° C. The mice were allocated to 2 groups of 12 mice each, (2 mice/cage) so that mean and standard deviation for body weight, blood glucose and serum insulin were similar across both groups. Mice were acclimated for two weeks before treatment initiation.
For oral glucose tolerance test, food was removed six hours prior to the start of the glucose tolerance test (09h00) and animals were placed in clean cages. Mice were dosed with glucose at T=0 minutes. Glucose was dissolved in water and given to the mice by oral gavage at a dose of 2.5 g/kg p.o. Blood samples […] were taken from the cut tip of the tail after the application of Lidocaine gel (Biorex Laboratories UK) for the analysis of glucose concentration at −30, 0, 30, 60, 120 and 180 minutes relative to glucose administration. Blood samples were also taken at −30 and +30 minutes for insulin analysis (Crystal Chem Inc. Cat INS90090). Food was returned to the animals at the end of the glucose tolerance test. Plasma nonesterified Fatty Acids (NEFA, Crystal Wako Chemicals Gmbh, Neuss, Germany, Cat 999-75406), leptin (Crystal Chem. Inc., Cat LEP90030) and adiponectin (Alpco Diagnostics, Salem, New Hampshire, Cat 47-ADPMS-E01) were measured as per the manufacturers' recommendations. Body fat and lean content was measured by Nuclear Magnetic Resonance (NMR). Comparison with calibrated standards allowed identification of types of tissue by their density. Dedicated software was used to quantify amounts of adipose and […]. The mice were gently restrained, sufficient to keep them quiescent during this non-invasive technique.
To measure physical activity, mice were kept in their original cages of 2 mice per cage. Recordings were taken using an infra-red recorder linked to a laptop. Recordings were made on the hour every hour from 7 pm until 8 am. Each recording was of 10-minute duration. Lights went out at 8 pm and came on again at 8 am. Analysis of activity was done by virtually drawing 2 lines across each cage (thus dividing them into 3 equal parts). Recordings were analyzed by eye and the number of times a line was broken by a mouse in each 10-minute segment was scored. Energy expenditure was measured at several time points during the course of the study by open-circuit indirect calorimetry with mice kept in their home cages (6 cages of 2 mice per experimental group (Arch, J. R., et al., 2006; Arch, J. R. and P. Trayhurn, 2013).
At the end of the study, tissues and organs were collected, then frozen for future gene expression analysis or placed in 10% neutral buffered formalin solution (Sigma-Aldrich Cat HT501128), then washed in PBS, pH 7.4 and transferred to 70% ethanol for subsequent processing for histologic and immunohistochemistry analyses.
In some studies, non-esterified fatty acids (NEFA), plasma leptin and adiponectin were also measured and oral glucose tolerance tests (OGTT) were performed. Oral glucose tolerance test was performed as follows: Six hours prior to the start of the glucose tolerance test (09h00), food was removed and animals were given clean cages. Mice were dosed with glucose at T=0 minutes. […]

[3] = Day −2 (before treatment), 6 hours fast
[4] = end of 12-week study, Mean ± SEM

## 5′-5mCpsTpsTps2′OMeCpsTpsTps5mCpsApsAps2′OMeCpsTpsGpsGps5mCpsApsGps5mCpsT-3′ [APT-110]
[1]; 60% high fat diet, 15 mg/kg SC, saline 22%
  weight increase week 6 vs Week 0: 6%
[1]; Day 35 of treatment, saline 245±8
  blood glucose after fasting for 4 hours: 183 ± 11 mg/dL
[1]; Day 44 of treatment, at necropsy, saline 341±9
  random blood glucose: 212 ± 12 mg/dL
[1]; NMR, week 6
  fat mass lower than control group on saline: 30%
[1]; NMR, week 6, saline 16.11±0.87
  fat mass: 11.29±0.87 grams
[1]; NMR, week 6, saline 22.33±0.63
  lean mass: 21.74±0.99 grams
[1]; Week 0 (baseline)
  body weight: 34.15±0.53 grams
[1]; at necropsy, saline 164±6
  serum cholesterol: 110 ± 5 mg/dL
[1]; week 6, 60% high fat diet, saline 41.73±1.07
  body weight: 36.16±0.67 grams
[2]; Day 10 of treatment
  24-hr energy expenditure vs saline: did not show a difference
[2]; Day 11, confirmed on Day 28 and Day 52
  energy expenditure vs saline: increase in energy expenditure
[2]; Day 44, 6 hours fast
  Blood glucose: 9.01 ± 0.19 mmol/L
  Plasma adiponectin: 2.66 ± 0.15
  Plasma insulin: 295 ± 25 pmol/L
  Plasma leptin: 4.85 ± 0.42 nmol/L
[2]; Day 75, glucose 2.5 g/kg p.o., saline mice diabetic profile
  Oral Glucose Tolerance Test profile: normal profile
[2]; Day 79, 6 hours fast
  Blood glucose: 5.71 ± 0.18 mmol/L
  Plasma adiponectin: 3.16 ± 0.13
  Plasma insulin: 220 ± 17 pmol/L
  Plasma leptin: 4.21 ± 0.54 nmol/L
[2]; Day 85, 6-hour fast, p<0.0001
  Cholesterol: 4.67 ± 0.16 mmol/L
[2]; Day 85, 6-hour fast, p=0.003
  Non Esterified Fatty Acids: 1.71 ± 0.08 mmol/L
[2]; Day 85, 6-hour fast, p=0.11
  Triglycerides: 1.46 ± 0.08 mmol/L
[2]; [3]
  Blood glucose: 6.69 ± 0.27 mmol/L
  Plasma adiponectin: 3.16 ± 0.13
  Plasma insulin: 179 ± 18 pmol/L
  Plasma leptin: 3.11 ± 0.45 nmol/L
[2]; Week 12, Day 82
  fat mass difference vs saline (NMR): −12%
  lean mass (NMR): identical in both groups
[2]; average, day 11 to day 53
  total daily energy expenditure greater than saline: 13%
[2]; course of the 12-week study, control group developed insulin resistance
  insulin sensitivity (fasting Insulin/Glucose ratio over time): maintain the same level of insulin sensitivity
[2]; [4]
  Epdidymal fat weight: 1.8 ± 0.978 grams
  Inguinal fat weight: 3.166 ± 0.135 grams
  Liver weight: 2.442 ± 0.127 grams
  Peri-renal fat weight: 1.183 ± 0.096 grams
  Subscapular fat weight: 0.202 ± 0.020 grams
[2]; week 12 of treatment, 60% high fat diet
  weight gain vs mice receiving saline injections: −30%
